# Laboratory results reported in article PMC6985185 (Breast cancer research and treatment, 2019).
# Several values for one entry are separate records, joined by “and”; a condition that tells them apart may be missing. Identical values can stand only once.
# Experiments:
# [1] = system: uterus; assay: Uterine wet weight in LTED tumor bearing mice; format: in vivo, Nu:J mice; conditions: ovariectomized LTED tumor bearing mice, after 4 weeks of treatment at the LTED study doses
# [2] = current clinical protocol; cited from earlier work
# [3] = Circulating plasma levels of fulvestrant after a single injection (LC/MS/MS); format: in vivo, Nu:J mice; conditions: single injection of 25 or 200 mg/kg; plasma collected 1, 3, 5, or 7 days after administration
# [4] = biological target: T1, estrogen receptor (ER) (Homo sapiens, UniProt P03372); assay: Immunoblot of ER levels in HCC1428 tumors; conditions: 25 mg/kg sc qw, 4 weeks
# T1 sequence (P03372 1-595): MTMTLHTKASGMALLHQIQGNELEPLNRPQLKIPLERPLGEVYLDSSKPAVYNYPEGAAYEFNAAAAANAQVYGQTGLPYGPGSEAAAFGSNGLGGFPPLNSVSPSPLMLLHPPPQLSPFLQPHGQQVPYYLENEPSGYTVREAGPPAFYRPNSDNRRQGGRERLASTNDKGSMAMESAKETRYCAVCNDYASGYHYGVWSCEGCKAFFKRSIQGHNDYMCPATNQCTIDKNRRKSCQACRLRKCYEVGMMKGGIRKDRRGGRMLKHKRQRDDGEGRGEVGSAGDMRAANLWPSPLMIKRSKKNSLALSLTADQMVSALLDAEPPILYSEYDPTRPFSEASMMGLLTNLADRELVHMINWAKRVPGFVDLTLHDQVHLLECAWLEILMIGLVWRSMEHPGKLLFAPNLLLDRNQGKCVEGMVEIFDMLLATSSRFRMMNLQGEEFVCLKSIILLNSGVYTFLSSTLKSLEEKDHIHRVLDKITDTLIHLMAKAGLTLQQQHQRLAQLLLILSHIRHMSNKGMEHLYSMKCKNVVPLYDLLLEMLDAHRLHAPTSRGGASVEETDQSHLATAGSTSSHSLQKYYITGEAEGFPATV
# [5] = system: breast cancer; conditions: 500 vs 250 mg/month, loading regimen 500 mg on d1, d14, d29; cited from earlier work
# [6] = Circulating plasma levels of fulvestrant at euthanasia, TamR Study 1 (LC/MS/MS); format: in vivo, Nu:J mice; conditions: female, Nu/J, mouse, subcutaneous
# [7] = system: HCC1428 breast cancer xenograft tumors; assay: HCC1428 Study: growth of estrogen dependent xenograft tumors; format: in vivo, Nu:J mice; conditions: 25 mg/kg sc qw, 4 weeks; ovariectomized mice receiving oral estradiol
# [8] = system: ER; conditions: months of treatment with originally approved 250 mg/month regimen; cited from earlier work
# [9] = system: breast cancer; conditions: 250 mg monthly; patients that had already progressed during AI treatment; cited from earlier work
# [10] = system: ER target genes AGR2, AGR3, and KRT13; assay: RT-qPCR of tamoxifen responsive ER target genes in TamR tumors; format: in vivo, Nu:J mice
# [11] = biological target: T1, estrogen receptor (ER); assay: Immunoblot of ER levels in TamR tumors, Study 1; conditions: 28 days of treatment
# [12] = system: TamR (tamoxifen resistant) xenograft tumors; assay: TamR Study 1: growth of tamoxifen-resistant xenograft tumors under fulvestrant; format: in vivo, Nu:J mice
# [13] = all doses administered (25-200 mg/kg)
compound,measurement,setting,value
"C[C@]12CC[C@@H]3c4ccc(O)cc4C[C@@H](CCCCCCCCC[S+]([O-])CCCC(F)(F)C(F)(F)F)[C@H]3[C@@H]1CC[C@@H]2O (stereo partly shown) [Fulvestrant, fulvestrant]",Uterine wet weight (measure of uterine stimulation),[1],non-significant trend toward reduced uterine weight
same,Cmax observed per current protocol in patients,[2],~0.028 µg/mL
same,Time of highest plasma level after single injection,[3],highest levels detected one day after administration
same,ER expression in HCC1428 tumors (western blotting),[4],modest but significant downregulation of ER expression
same,Clinical response to higher dose with loading regimen,[5],improved response rate and increased time to progression
same,concentration at 7 days after final dose,[6]; 25 mg/kg,34.6 ng/mL and 57 nM
same,concentration at 7 days after final dose,[6]; 50 mg/kg,64.9 ng/mL and 107 nM
same,concentration at 7 days after final dose,[6]; 100 mg/kg,95.6 ng/mL and 157 nM
same,concentration at 7 days after final dose,[6]; 200 mg/kg,207 ng/mL and 340 nM
same,Effect on HCC1428 xenograft tumor growth,[7],Tumor stasis
same,Patients exhibiting intratumoral [(18)F]fluoroestradiol (FES) binding during follow up PET scans,[8],30%
same,Response rate in the EFFECT trial,[9],7.4%
same,mRNA expression of anterior gradient protein 3 (AGR3) in TamR tumors,[10]; [13],dramatic downregulation
same,mRNA expression of keratin 13 (KRT13) in TamR tumors,[10]; [13],dramatic downregulation
same,mRNA expression of AGR2 in TamR tumors,[10]; only for doses that resulted in quantitative downregulation of ER protein,modest reduction in AGR2 expression
same,ER downregulation in TamR tumors (immunoblot),[11]; 25 mg/kg dose,did not result in significant ER downregulation
same,ER downregulation in TamR tumors (immunoblot),"[11]; 50, 100, and 200 mg/kg doses",Significant (p < 0.001) downregulation of ER
same,Inhibition of TamR tumor growth vs vehicle control,"[12]; 4 weekly injections of 25, 50, 100, or 200 mg/kg (all doses), no significant differences between doses",significant inhibition of tumor growth
same,% tumor growth inhibition of TamR tumors,"[12]; fulvestrant 25 mg/kg sc weekly, day 0 of treatment",−1%
same,% tumor growth inhibition of TamR tumors,"[12]; fulvestrant 25 mg/kg sc weekly, day 2 of treatment",25%
same,% tumor growth inhibition of TamR tumors,"[12]; fulvestrant 25 mg/kg sc weekly, day 4 of treatment",20%
same,% tumor growth inhibition of TamR tumors,"[12]; fulvestrant 25 mg/kg sc weekly, day 7 of treatment",21%
same,% tumor growth inhibition of TamR tumors,"[12]; fulvestrant 25 mg/kg sc weekly, day 9 of treatment",18%
same,% tumor growth inhibition of TamR tumors,"[12]; fulvestrant 25 mg/kg sc weekly, day 11 of treatment",24%
same,% tumor growth inhibition of TamR tumors,"[12]; fulvestrant 25 mg/kg sc weekly, day 14 of treatment",33%
same,% tumor growth inhibition of TamR tumors,"[12]; fulvestrant 25 mg/kg sc weekly, day 16 of treatment",29%
same,% tumor growth inhibition of TamR tumors,"[12]; fulvestrant 25 mg/kg sc weekly, day 18 of treatment",39%
same,% tumor growth inhibition of TamR tumors,"[12]; fulvestrant 25 mg/kg sc weekly, day 21 of treatment",44%
same,% tumor growth inhibition of TamR tumors,"[12]; fulvestrant 25 mg/kg sc weekly, day 23 of treatment",45%
same,% tumor growth inhibition of TamR tumors,"[12]; fulvestrant 25 mg/kg sc weekly, day 25 of treatment",47%
same,% tumor growth inhibition of TamR tumors,"[12]; fulvestrant 25 mg/kg sc weekly, day 28 of treatment",47%
same,% tumor growth inhibition of TamR tumors,"[12]; fulvestrant 50 mg/kg sc weekly, day 0 of treatment",−1%
same,% tumor growth inhibition of TamR tumors,"[12]; fulvestrant 50 mg/kg sc weekly, day 2 of treatment",24%
same,% tumor growth inhibition of TamR tumors,"[12]; fulvestrant 50 mg/kg sc weekly, day 4 of treatment",20%
same,% tumor growth inhibition of TamR tumors,"[12]; fulvestrant 50 mg/kg sc weekly, day 7 of treatment",26%
same,% tumor growth inhibition of TamR tumors,"[12]; fulvestrant 50 mg/kg sc weekly, day 9 of treatment",28%
same,% tumor growth inhibition of TamR tumors,"[12]; fulvestrant 50 mg/kg sc weekly, day 11 of treatment",31%
same,% tumor growth inhibition of TamR tumors,"[12]; fulvestrant 50 mg/kg sc weekly, day 14 of treatment",37%
same,% tumor growth inhibition of TamR tumors,"[12]; fulvestrant 50 mg/kg sc weekly, day 16 of treatment",40%
same,% tumor growth inhibition of TamR tumors,"[12]; fulvestrant 50 mg/kg sc weekly, day 18 of treatment",44%
same,% tumor growth inhibition of TamR tumors,"[12]; fulvestrant 50 mg/kg sc weekly, day 21 of treatment",51%
same,% tumor growth inhibition of TamR tumors,"[12]; fulvestrant 50 mg/kg sc weekly, day 23 of treatment",58%
same,% tumor growth inhibition of TamR tumors,"[12]; fulvestrant 50 mg/kg sc weekly, day 25 of treatment",59%
same,% tumor growth inhibition of TamR tumors,"[12]; fulvestrant 50 mg/kg sc weekly, day 28 of treatment",62%
same,% tumor growth inhibition of TamR tumors,"[12]; fulvestrant 100 mg/kg sc weekly, day 0 of treatment",−3%
same,% tumor growth inhibition of TamR tumors,"[12]; fulvestrant 100 mg/kg sc weekly, day 2 of treatment",23%
same,% tumor growth inhibition of TamR tumors,"[12]; fulvestrant 100 mg/kg sc weekly, day 4 of treatment",20%
same,% tumor growth inhibition of TamR tumors,"[12]; fulvestrant 100 mg/kg sc weekly, day 7 of treatment",27%
same,% tumor growth inhibition of TamR tumors,"[12]; fulvestrant 100 mg/kg sc weekly, day 9 of treatment",16%
same,% tumor growth inhibition of TamR tumors,"[12]; fulvestrant 100 mg/kg sc weekly, day 11 of treatment",32%
same,% tumor growth inhibition of TamR tumors,"[12]; fulvestrant 100 mg/kg sc weekly, day 14 of treatment",44%
same,% tumor growth inhibition of TamR tumors,"[12]; fulvestrant 100 mg/kg sc weekly, day 16 of treatment",36%
same,% tumor growth inhibition of TamR tumors,"[12]; fulvestrant 100 mg/kg sc weekly, day 18 of treatment",50%
same,% tumor growth inhibition of TamR tumors,"[12]; fulvestrant 100 mg/kg sc weekly, day 21 of treatment",46%
same,% tumor growth inhibition of TamR tumors,"[12]; fulvestrant 100 mg/kg sc weekly, day 23 of treatment",53%
same,% tumor growth inhibition of TamR tumors,"[12]; fulvestrant 100 mg/kg sc weekly, day 25 of treatment",49%
same,% tumor growth inhibition of TamR tumors,"[12]; fulvestrant 100 mg/kg sc weekly, day 28 of treatment",58%
same,% tumor growth inhibition of TamR tumors,"[12]; fulvestrant 200 mg/kg sc weekly, day 0 of treatment",2%
same,% tumor growth inhibition of TamR tumors,"[12]; fulvestrant 200 mg/kg sc weekly, day 2 of treatment",28%
same,% tumor growth inhibition of TamR tumors,"[12]; fulvestrant 200 mg/kg sc weekly, day 4 of treatment",24%
same,% tumor growth inhibition of TamR tumors,"[12]; fulvestrant 200 mg/kg sc weekly, day 7 of treatment",24%
same,% tumor growth inhibition of TamR tumors,"[12]; fulvestrant 200 mg/kg sc weekly, day 9 of treatment",25%
same,% tumor growth inhibition of TamR tumors,"[12]; fulvestrant 200 mg/kg sc weekly, day 11 of treatment",39%
same,% tumor growth inhibition of TamR tumors,"[12]; fulvestrant 200 mg/kg sc weekly, day 14 of treatment",47%
same,% tumor growth inhibition of TamR tumors,"[12]; fulvestrant 200 mg/kg sc weekly, day 16 of treatment",48%
same,% tumor growth inhibition of TamR tumors,"[12]; fulvestrant 200 mg/kg sc weekly, day 18 of treatment",53%
same,% tumor growth inhibition of TamR tumors,"[12]; fulvestrant 200 mg/kg sc weekly, day 21 of treatment",61%
same,% tumor growth inhibition of TamR tumors,"[12]; fulvestrant 200 mg/kg sc weekly, day 23 of treatment",66%
same,% tumor growth inhibition of TamR tumors,"[12]; fulvestrant 200 mg/kg sc weekly, day 25 of treatment",67%
same,% tumor growth inhibition of TamR tumors,"[12]; fulvestrant 200 mg/kg sc weekly, day 28 of treatment",74%
